Laboratory results as given in patent US20240083857A1, “2-Methyl-Quinazolines” (Bayer Pharma Aktiengesellschaft, priority 2017, published 2024).

How the values were obtained:
[1] = target: Epidermal Growth Factor Receptor (EGFR) (Homo sapiens (Human), UniProt P00533); assay: EGFR kinase assay (TR-FRET); format: biochemical; conditions: values given in μM; read-out: EGFR kinase inhibition IC50
Outline: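 Read-out is the 665/620 nm HTRF ratio, from a Tb-cryptate anti-phosphotyrosine antibody and streptavidin-XL665 bound to phosphorylated biotin-peptide substrate. The enzyme, A431-derived EGFR (~3 U/ml), was given 15 min compound pre-binding at 22° C in Hepes pH 7.0 with Mg2+/Mn2+ before reaction.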

[2] = target: human SOS1 (nucleotide exchange of K-Ras^G12C) (Homo sapiens, UniProt Q07889); assay: Biochemical assay 2: K-Ras^G12C activation assay by hSOS1 at high GTP concentration (HTRF); conditions: high GTP; read-out: Assay 2 (KRAS-Activation by SOS high GTP) activity expressed as IC50

Epidermal Growth Factor Receptor (EGFR), sequence (P00533 25-1210): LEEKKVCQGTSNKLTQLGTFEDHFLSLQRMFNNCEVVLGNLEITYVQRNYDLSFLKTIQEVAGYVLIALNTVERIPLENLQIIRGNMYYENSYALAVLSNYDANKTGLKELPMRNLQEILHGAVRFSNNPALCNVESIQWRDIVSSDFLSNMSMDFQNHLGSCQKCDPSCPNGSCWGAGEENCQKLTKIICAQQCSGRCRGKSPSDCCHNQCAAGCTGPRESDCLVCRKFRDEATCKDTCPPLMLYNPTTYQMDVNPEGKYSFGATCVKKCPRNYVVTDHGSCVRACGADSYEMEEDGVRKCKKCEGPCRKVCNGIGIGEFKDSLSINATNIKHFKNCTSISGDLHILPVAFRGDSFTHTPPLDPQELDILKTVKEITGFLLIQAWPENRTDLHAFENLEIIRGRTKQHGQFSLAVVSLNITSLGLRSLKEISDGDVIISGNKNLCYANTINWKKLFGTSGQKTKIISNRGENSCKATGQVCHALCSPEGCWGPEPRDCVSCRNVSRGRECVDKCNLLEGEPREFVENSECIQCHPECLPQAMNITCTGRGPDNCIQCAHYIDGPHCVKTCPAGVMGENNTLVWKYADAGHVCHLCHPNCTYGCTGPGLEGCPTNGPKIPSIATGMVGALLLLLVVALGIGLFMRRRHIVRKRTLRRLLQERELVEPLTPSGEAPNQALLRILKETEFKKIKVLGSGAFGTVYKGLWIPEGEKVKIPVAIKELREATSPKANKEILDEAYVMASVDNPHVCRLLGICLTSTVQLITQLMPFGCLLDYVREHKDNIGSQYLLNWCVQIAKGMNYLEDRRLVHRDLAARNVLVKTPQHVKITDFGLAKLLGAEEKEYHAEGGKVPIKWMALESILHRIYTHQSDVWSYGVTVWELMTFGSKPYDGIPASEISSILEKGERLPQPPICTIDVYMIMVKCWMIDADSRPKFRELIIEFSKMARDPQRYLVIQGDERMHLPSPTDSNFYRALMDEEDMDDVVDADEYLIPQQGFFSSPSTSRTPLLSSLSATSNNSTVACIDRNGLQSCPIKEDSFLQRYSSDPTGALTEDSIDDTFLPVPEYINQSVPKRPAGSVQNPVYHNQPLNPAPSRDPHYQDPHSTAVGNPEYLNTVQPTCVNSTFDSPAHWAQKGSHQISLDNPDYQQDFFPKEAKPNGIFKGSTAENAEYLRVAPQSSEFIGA

SMILES	IC50 [1]	IC50 [2]
COc1cc2nc(C)nc(NC(C)c3ccc(-c4cnc5n4CCC5)s3)c2cc1OC (stereo not drawn) [Example 219, N-{1-[5-(6,7-dihydro-5H-pyrrolo[1,2-a]imidazol-3-yl)thiophen-2-yl]ethyl}-6,7-dimethoxy-2-methylquinazolin-4-amine]	> 20 µM	0.57 µM
COc1cc2nc(C)nc(NC(C)c3ccc(-c4cnn(CCN5CCCC5)c4)s3)c2cc1OC (stereo not drawn) [Example 220, 6,7-dimethoxy-2-methyl-N-[1-(5-{1-[2-(pyrrolidin-1-yl)ethyl]-1H-pyrazol-4-yl}thiophen-2-yl)ethyl]quinazolin-4-amine]	> 20 µM	0.381 µM
COc1cc2nc(C)nc(NC(C)c3ccc(-c4cnn(C5CCCC5)c4)s3)c2cc1OC (stereo not drawn) [Example 221, N-{1-[5-(1-cyclopentyl-1H-pyrazol-4-yl)thiophen-2-yl]ethyl}-6,7-dimethoxy-2-methylquinazolin-4-amine]	> 20 µM	4.65 µM
COc1cc2nc(C)nc(NC(C)c3ccc(-c4cc[nH]n4)s3)c2cc1OC (stereo not drawn) [Example 222, 6,7-dimethoxy-2-methyl-N-{1-[5-(1H-pyrazol-3-yl)thiophen-2-yl]ethyl}quinazolin-4-amine]	> 20 µM	4.44 µM
COc1cc2nc(C)nc(NC(C)c3ccc(-c4ccccc4CN4CCC(F)(F)C4)s3)c2cc1OC (stereo not drawn) [Example 223, N-[1-(5-{2-[(3,3-difluoropyrrolidin-1-yl)methyl]phenyl}thiophen-2-yl)ethyl]-6,7-dimethoxy-2-methylquinazolin-4-amine]	> 20 µM	5.6 µM
COc1cc2nc(C)nc(NC(C)c3ccc4nsnc4c3)c2cc1OC (stereo not drawn) [Example 229, N-[1-(2,1,3-benzothiadiazol-5-yl)ethyl]-6,7-dimethoxy-2-methylquinazolin-4-amine]	> 20 µM	7.82 µM
CCOc1ccccc1-c1ccc(C(C)Nc2nc(C)nc3cc(OC)c(OC)cc23)s1 (stereo not drawn) [Example 232, N-{1-[5-(2-ethoxyphenyl)thiophen-2-yl]ethyl}-6,7-dimethoxy-2-methylquinazolin-4-amine]	> 20 µM	9.29 µM
COc1cc2nc(C)nc(NC(C)c3ccc(-c4ccc(F)c5ccccc45)s3)c2cc1OC (stereo not drawn) [Example 233, N-{1-[5-(4-fluoronaphthalen-1-yl)thiophen-2-yl]ethyl}-6,7-dimethoxy-2-methylquinazolin-4-amine]	> 20 µM	2 µM
COc1cc2nc(C)nc(NC(C)c3ccc(-c4ccc(F)cc4CN)s3)c2cc1OC (stereo not drawn) [Example 234, N-[1-{5-[2-(aminomethyl)-4-fluorophenyl]thiophen-2-yl}ethyl]-6,7-dimethoxy-2-methylquinazolin-4-amine]	> 20 µM	0.0654 µM
COc1cc2nc(C)nc(NC(C)c3ccc(C4=CCOCC4)s3)c2cc1OC (stereo not drawn) [Example 235, N-{1-[5-(3,6-dihydro-2H-pyran-4-yl)thiophen-2-yl]ethyl}-6,7-dimethoxy-2-methylquinazolin-4-amine]	> 20 µM	4.72 µM
COc1cc2nc(C)nc(NC(C)c3ccc(-c4ccccc4CN4CCC(N(C)C)C4)s3)c2cc1OC (stereo not drawn) [Example 238, N-{1-[5-(2-{[3-(dimethylamino)pyrrolidin-1-yl]methyl}phenyl)thiophen-2-yl]ethyl}-6,7-dimethoxy-2-methylquinazolin-4-amine]	> 20 µM	0.217 µM
COc1cc2nc(C)nc(NC(C)c3csc(Br)c3)c2cc1OC (stereo not drawn) [Example 239, N-[1-(5-bromothiophen-3-yl)ethyl]-6,7-dimethoxy-2-methylquinazolin-4-amine]	> 20 µM	3.83 µM
COc1cc2nc(C)nc(NC(C)c3ccc(-c4ccccc4C(N)=O)s3)c2cc1OC (stereo not drawn) [Example 240, 2-(5-{1-[(6,7-dimethoxy-2-methylquinazolin-4-yl)amino]ethyl}thiophen-2-yl)benzamide]	> 20 µM	3.19 µM
COc1cc2nc(C)nc(NC(C)c3ccc(-c4cccc(C(N)=O)c4)s3)c2cc1OC (stereo not drawn) [Example 241, 3-(5-{1-[(6,7-dimethoxy-2-methylquinazolin-4-yl)amino]ethyl}thiophen-2-yl)benzamide]	> 20 µM	1.44 µM
COc1cc2nc(C)nc(NC(C)c3ccc(-c4ccc(C(N)=O)cc4)s3)c2cc1OC (stereo not drawn) [Example 242, 4-(5-{1-[(6,7-dimethoxy-2-methylquinazolin-4-yl)amino]ethyl}thiophen-2-yl)benzamide]	> 20 µM	1.5 µM
COc1cc2nc(C)nc(NC(C)c3ccc(-c4ccccc4N)s3)c2cc1OC (stereo not drawn) [Example 243, N-{1-[5-(2-aminophenyl)thiophen-2-yl]ethyl}-6,7-dimethoxy-2-methylquinazolin-4-amine]	> 20 µM	0.325 µM
COc1cc2nc(C)nc(NC(C)c3ccc(-c4ccccc4CO)s3)c2cc1OC (stereo not drawn) [Example 244, [2-(5-{1-[(6,7-dimethoxy-2-methylquinazolin-4-yl)amino]ethyl}thiophen-2-yl)phenyl]methanol]	> 20 µM	0.401 µM
COc1cc2nc(C)nc(NC(C)c3ccc(-c4ccccc4C#N)s3)c2cc1OC (stereo not drawn) [Example 245, 2-(5-{1-[(6,7-dimethoxy-2-methylquinazolin-4-yl)amino]ethyl}thiophen-2-yl)benzonitrile]	> 20 µM	0.9 µM
COc1cc2nc(C)nc(NC(C)c3ccc(-c4cccc5cn[nH]c45)s3)c2cc1OC (stereo not drawn) [Example 246, N-{1-[5-(1H-indazol-7-yl)thiophen-2-yl]ethyl}-6,7-dimethoxy-2-methylquinazolin-4-amine]	> 20 µM	4.21 µM
COc1cc2nc(C)nc(NC(C)c3ccc(-c4cccc5[nH]ncc45)s3)c2cc1OC (stereo not drawn) [Example 247, N-{1-[5-(1H-indazol-4-yl)thiophen-2-yl]ethyl}-6,7-dimethoxy-2-methylquinazolin-4-amine]	> 20 µM	0.867 µM
C=Cc1ccccc1-c1ccc(C(C)Nc2nc(C)nc3cc(OC)c(OC)cc23)s1 (stereo not drawn) [Example 248, N-{1-[5-(2-ethenylphenyl)thiophen-2-yl]ethyl}-6,7-dimethoxy-2-methylquinazolin-4-amine]	> 20 µM	8.08 µM
COc1cc2nc(C)nc(NC(C)c3ccc(-c4cnn(CC(N)=O)c4)s3)c2cc1OC (stereo not drawn) [Example 249, 2-[4-(5-{1-[(6,7-dimethoxy-2-methylquinazolin-4-yl)amino]ethyl}thiophen-2-yl)-1H-pyrazol-1-yl]acetamide]	> 20 µM	5.31 µM
CNCc1ccccc1-c1ccc(C(C)Nc2nc(C)nc3cc(OC)c(OC)cc23)s1 (stereo not drawn) [Example 250, 6,7-dimethoxy-2-methyl-N-[1-(5-{2-[(methylamino)methyl]phenyl}thiophen-2-yl)ethyl]quinazolin-4-amine]	> 20 µM	0.0581 µM
COc1cc2nc(C)nc(NC(C)c3csc(-c4cnn(CCO)c4)c3)c2cc1OC (stereo not drawn) [Example 251, 2-[4-(4-{1-[(6,7-dimethoxy-2-methylquinazolin-4-yl)amino]ethyl}thiophen-2-yl)-1H-pyrazol-1-yl]ethanol]	> 20 µM	5.84 µM
COc1cc2nc(C)nc(NC(C)c3ccc(-c4ccccc4CN)s3)c2cc1OC (stereo not drawn) [Example 252, N-[1-{5-[2-(aminomethyl)phenyl]thiophen-2-yl}ethyl]-6,7-dimethoxy-2-methylquinazolin-4-amine]	> 20 µM	0.0741 µM
COc1cc2nc(C)nc(NC(C)c3csc(-c4cnc5n4CCC5)c3)c2cc1OC (stereo not drawn) [Example 253, N-{1-[5-(6,7-dihydro-5H-pyrrolo[1,2-a]imidazol-3-yl)thiophen-3-yl]ethyl}-6,7-dimethoxy-2-methylquinazolin-4-amine]	> 20 µM	2.33 µM
COc1cc2nc(C)nc(NC(C)c3csc(-c4cnn(CCN5CCCC5)c4)c3)c2cc1OC (stereo not drawn) [Example 254, 6,7-dimethoxy-2-methyl-N-[1-(5-{1-[2-(pyrrolidin-1-yl)ethyl]-1H-pyrazol-4-yl}thiophen-3-yl)ethyl]quinazolin-4-amine]	> 20 µM	1.59 µM
COc1cc2nc(C)nc(NC(C)c3csc(-c4ccc(F)cc4CN)c3)c2cc1OC (stereo not drawn) [Example 255, N-[1-{5-[2-(aminomethyl)-4-fluorophenyl]thiophen-3-yl}ethyl]-6,7-dimethoxy-2-methylquinazolin-4-amine]	> 20 µM	0.317 µM
COc1cc2nc(C)nc(N[C@H](C)c3cccc(-c4cnn(CCO)c4)c3)c2cc1OC [Example 256, 2-[4-(3-{(1R)-1-[(6,7-dimethoxy-2-methylquinazolin-4-yl)amino]ethyl}phenyl)-1H-pyrazol-1-yl]ethanol]	> 20 µM	0.828 µM
COc1cc2nc(C)nc(N[C@H](C)c3cccc(-c4cnn(CCN5CCCC5)c4)c3)c2cc1OC [Example 257, 6,7-dimethoxy-2-methyl-N-[(1R)-1-(3-{1-[2-(pyrrolidin-1-yl)ethyl]-1H-pyrazol-4-yl}phenyl)ethyl]quinazolin-4-amine]	> 20 µM	0.754 µM
